The values below come from patent US20240368084A1, “STING MODULATORS, COMPOSITIONS, AND METHODS OF USE” (University of South Florida, priority 2021, published 2024).

The assay concerns the target His-labeled STING (Homo sapiens, UniProt Q86WV6). Description: Microscale thermophoresis (MST) binding assay. The following applies: for Dissociation Constant: MST, incubating with 50 nM 2,3-cGAMP; for Confidence: confidence class by MST shift units. As to the method: Nanotemper Monolith NT.115 labeled thermophoresis machine was used with standard treated capillary tubes using samples comprised of labeled protein and titrations of small molecule in 1×PBS. […] Detection of the protein was performed using the blue detection channel with LED excitation power set to 90% and MST set to high allowing 3 s prior to MST on to check for initial fluorescence differences, 25 s for thermophoresis, and 3 s for regeneration after MST off.
Detection of the protein was performed using the blue detection channel with LED excitation power set to 90% and MST set to high allowing 3 s prior to MST on to check for initial fluorescence differences, 25 s for thermophoresis, and 3 s for regeneration after MST off. Analysis was performed using M.O. Affinity Analysis Software with difference between initial fluorescence measured in the first 5 s as compared with thermophoresis at 15 s at 15 different analyte concentrations ranging from 100 zM to 100 μM and exported into Graphpad Prism v.8 using a Log inhibitor v. response 4 parameter fit.
Confidence is categorized as follows: 1=low confidence (<2 MST shift unit−non-statistical); 2=mid confidence (2-3 MST shift units−intermediate); 3=high confidence ([…]−statistical). Dissociation constants are categorized as follows: A<1 μM; 1 μM≤B<100 μM; […]; 10 μM≤D<100 μM.
Reference compounds were assayed using the same protocol.

His-labeled STING, sequence (Q86WV6 whole entry H232R): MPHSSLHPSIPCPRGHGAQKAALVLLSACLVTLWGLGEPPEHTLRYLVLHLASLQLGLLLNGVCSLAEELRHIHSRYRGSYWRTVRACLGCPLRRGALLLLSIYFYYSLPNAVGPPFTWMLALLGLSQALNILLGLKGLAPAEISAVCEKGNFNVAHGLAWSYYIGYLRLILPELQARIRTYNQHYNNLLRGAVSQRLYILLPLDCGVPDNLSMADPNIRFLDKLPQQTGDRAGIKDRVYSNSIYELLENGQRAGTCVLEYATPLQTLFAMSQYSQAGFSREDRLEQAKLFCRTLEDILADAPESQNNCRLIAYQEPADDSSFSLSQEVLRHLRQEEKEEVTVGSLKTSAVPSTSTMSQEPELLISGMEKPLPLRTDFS

In the case of `Cc1cccc(Nc2ccccc2C(=O)OCC(O)CO)c1C` (stereo not drawn) [Compound 46], the “Dissociation Constant” value is recorded as “No Binding” and the Confidence is 1 (1=low confidence (<2 MST shift unit−non-statistical)).

Consider `Cc1cccc(Nc2ncccc2C(=O)O)c1C` [Compound 47], for which the “Dissociation Constant” value is “No Binding” and the Confidence is 1 (1=low confidence (<2 MST shift unit−non-statistical)).

Take `Cc1cccc(Nc2ccccc2C(=O)O)c1C` [Compound 45]: the “Dissociation Constant” value is on record as “No Binding” and the Confidence is 1 (1=low confidence (<2 MST shift unit−non-statistical)).

Regarding `Cc1c(Cl)cccc1Nc1ncccc1COCC(O)CO` (stereo not drawn) [Compound 1], the Confidence is given as 1 (1=low confidence (<2 MST shift unit−non-statistical)).

Take `COC(=O)c1cccnc1Nc1cccc(Br)c1C` [Compound 24]: the Confidence was 1 (1=low confidence (<2 MST shift unit−non-statistical)).

For the molecule `C=CCNC(=O)c1cccnc1Nc1cccc(Cl)c1C` [Compound 17], the Confidence was 1 (1=low confidence (<2 MST shift unit−non-statistical)).

As to `Cc1c(Br)cccc1Nc1ncccc1C(=O)OCC(O)CO` (stereo not drawn) [Compound 42], the Confidence is given as 2 (2=mid confidence (2-3 MST shift units−intermediate)).

With `CCCOC(=O)c1cccnc1Nc1cccc(Cl)c1C` [Compound 11], the Confidence is given as 1 (1=low confidence (<2 MST shift unit−non-statistical)).

`Cc1c(Cl)cccc1Nc1ncccc1C(=O)OCC(O)CO` (stereo not drawn) [Compound 19]: the Confidence is recorded as 1 (1=low confidence (<2 MST shift unit−non-statistical)).

`CCCNC(=O)c1cccnc1Nc1cccc(Cl)c1C` [Compound 16]: the Confidence is listed as 2 (2=mid confidence (2-3 MST shift units−intermediate)).

In the case of `Cc1c(F)cccc1Nc1ncccc1C(=O)OCC(O)CO` (stereo not drawn) [Compound 43], the Confidence is reported as 1 (1=low confidence (<2 MST shift unit−non-statistical)).

As to `C#CCOC(=O)c1cccnc1Nc1cccc(Cl)c1C` [Compound 13], the Confidence is on record as 2 (2=mid confidence (2-3 MST shift units−intermediate)).

As to `CCNC(=O)c1cccnc1Nc1cccc(Cl)c1C` [Compound 15], the Confidence is 1 (1=low confidence (<2 MST shift unit−non-statistical)).

Regarding `Cc1c(Cl)cccc1Nc1ccccc1C(=O)O` [Compound 36, Tolfenamic acid, reference compound], the “Dissociation Constant” value is given as “No Binding” and the Confidence is recorded as 1 (1=low confidence (<2 MST shift unit−non-statistical)).

On to `COC(=O)c1cccnc1Nc1cccc(Cl)c1C` [Compound 9], for which the Confidence was 3 (3=high confidence (>2 MST shift units−statistical)).

Take `NC(=O)NC1NC(=O)NC1=O` (stereo not drawn) [Compound 52]: the Confidence was 3 (3=high confidence (>2 MST shift units−statistical)).

`Cc1c(Br)cccc1Nc1ncccc1C(=O)O` [Compound 23]: the Confidence is on record as 3 (3=high confidence (>2 MST shift units−statistical)).

For `Cc1c(Cl)cccc1Nc1ncccc1C(=O)OCCCOC(=O)c1cccnc1Nc1cccc(Cl)c1C` [Compound 41], the Confidence is reported as 1 (1=low confidence (<2 MST shift unit−non-statistical)).

With `CCCCC(=O)c1cccnc1Nc1cccc(Cl)c1C` [Compound 21], the Confidence is 2 (2=mid confidence (2-3 MST shift units−intermediate)).

As for `CCOC(=O)c1cccnc1Nc1cccc(Cl)c1C` [Compound 10], the “Dissociation Constant” value was “Low R^2” and the Confidence is 1 (1=low confidence (<2 MST shift unit−non-statistical)).

For `COC(=O)c1cccnc1Nc1cccc(F)c1C` [Compound 44], the Confidence was 1 (1=low confidence (<2 MST shift unit−non-statistical)).

`Cc1c(Cl)cccc1Nc1ncccc1C(=O)OCCCCOC(=O)c1cccnc1Nc1cccc(Cl)c1C` [Compound 49]: the Confidence was 1 (1=low confidence (<2 MST shift unit−non-statistical)).

In the case of `Cc1c(Nc2ncccc2C(=O)O)cccc1C(F)(F)F` [Compound 27], the Confidence is 3 (3=high confidence (>2 MST shift units−statistical)).

Take `CNC(=O)c1cccnc1Nc1cccc(Cl)c1C` [Compound 14]: the Confidence is given as 2 (2=mid confidence (2-3 MST shift units−intermediate)).

Take `Cc1c(Cl)cccc1Nc1ncccc1C(=O)OCCCCCOC(=O)c1cccnc1Nc1cccc(Cl)c1C` [Compound 50]: the Confidence is on record as 3 (3=high confidence (>2 MST shift units−statistical)).

On to `Cc1c(Cl)cccc1Nc1ncccc1CO` [Compound 4], for which the Confidence is 2 (2=mid confidence (2-3 MST shift units−intermediate)).

For the molecule `Cc1cccc(Nc2ncccc2C(=O)OCC(O)CO)c1C` (stereo not drawn) [Compound 48], the “Dissociation Constant” value is given as “No Binding” and the Confidence is on record as 1 (1=low confidence (<2 MST shift unit−non-statistical)).
